From US7812142B2, “Pentose derivatives as anti-hyperglycemic drugs” (Yissum Research Development Company of the Hebrew …, priority 2002, dated 2010)

Legend:
[1] = test system: L6 myotubes; assay: dGlc uptake assay in L6 myotubes; format: cell-based, rat; settings: for effect of PI3-kinase inhibitor LY-249002 on the substance's stimulation of hexose transport: 60 μM inhibitor, 23.0 mM glucose (FIG. 11A), EH-40 data not shown
Method: (§1) FIG. 10: Western blot depicting effect of 3-O-propyl-D-xylose (EH-114), and 1,3-O-dimethylxylopyranoside (EH-101) on the total cell content and plasma membrane abundance of GLUT-4 in the absence or presence of insulin. L6 myotubes were maintained for 48 hr at 23 mM Glucose. The cells were than washed and received fresh medium containing the indicated additions and incubated for additional […]. Insulin was added during the last 30 min of incubation before the dGlc uptake assay.
FIG. 11A: Effect of LY-249002, a PI3-kinase inhibitor, on insulin, D-xylose, EH-101 and EH-114-mediated glucose uptake. L6 myotubes were treated as described in the legend to FIG. 10. The glucose concentration in the culture medium was 23.0 mM. The concentration of LY-294002 was 60 μM. At the end of incubation the cells were taken for the standard dGlc uptake assay. Mean±SEM, n=3.
(§2) GLUT-1 and GLUT-4 mediate glucose entry into L6 myotubes. It is established that GLUT-4 is translocated effectively and rapidly to the plasma membrane upon insulin treatment. The inventors looked at the effect of 3-O-propyl-D-xylose EH-114) and 1,3-O-dimethylxylopyranoside (EH-101) on the total cell content and plasma membrane abundance of these transporters in the absence or presence of insulin. L6 myotubes were maintained at 5.0 or 23.0 mM glucose for 48 hr and EH-114 and EH-101 were present during the last 24 hr. The cells were then taken for the standard [^3H]-2-deoxy-D-glucose uptake assay and for the biotinylation procedure for determining the amount of GLUT-1 and GLUT-4 in the plasma membrane. High glucose levels decreased the hexose transport rate by ˜50%. Insulin augmented the transport nearly 2-fold in both cases. EH-114 and EH-101 increased the transport rate 2-3-fold in the absence of insulin. Together with insulin the uptake rate was increased nearly 3-fold.
The inventors also tested the hypothesis that the active D-xylose derivatives augment the hexose transport capacity in L6 myotubes by translocating GLUT-4 to the plasma membrane not via the common insulin-regulated pathway. For this experiment, a selective inhibitor of the enzyme PI3-kinase, LY-249002, which is a key enzyme in the cellular transduction mechanism of insulin, was utilized. […] These findings also agree well with the longer onset of action of these derivatives as compared to the rapid action of insulin. Similar results were obtained when LY-249002 was present together with the derivatives throughout the entire incubation period.
(§3) Uptake assay of the tritiated glucose analogue, 2-deoxy-D-glucose, is routinely performed as described in [Sasson, S. and Cerasi, E. (1986) J. Biol. Chem. 261, 16827-16833].

[2] = test system: GLUT-4; assay: Cell surface biotinylation and western blot of GLUT-4 in L6 myotubes; format: cell-based, rat; settings: for translocation of GLUT-4 to the plasma membrane: L6 myotubes, xylose derivatives in the absence of insulin, insulin 500 nM (FIG. 10)
Method: as §1, §2
Surface biotinylation of the cells was performed as previously described [Sasson et al (1997), Diabetologia, 40, 30-398].

[3] = test system: PKB; assay: PKB phosphorylation immunoblot in L6 myotubes; format: cell-based, rat; settings: 23.0 mM glucose; 100 nM insulin, 20 mM xylose, 5 mM EH-114 or 250 μM EH-40, up to 24 hrs (FIG. 11B)
Method: FIG. 11B: Effects of insulin D-xylose and xylose derivatives on PKB phosphorylation. L6 myotubes were maintained at 5.5 mM or 23.0 mM glucose. The latter were treated with 100 nM insulin, 20 mM xylose, 5 mM EH-114 or 250 μM EH-40 up to 24 hrs. At the indicated times treated myotubes were collected, homogenized and lysed and the soluble protein fraction was isolated. The control myotubes were collected at the end of the 24 hr incubation period. Equal amounts of proteins of the various treated myotubes were separated on SDS-PAGE and immunoblotted with a specific antibody against phospho-Axt1/PKBα (Ser473). In order to test whether xylose derivative activate insulin transduction elements downstream of PI3K, the inventors tested the state of PKB phosphorylation, as shown in FIG. 11B.

[4] = test system: GLUT-1; assay: Cell surface biotinylation and western blot of GLUT-1 in L6 myotubes; format: cell-based, rat; settings: data not shown
Method: as §2
FIG. 10 presents the western blots showing the results of such a representative experiment. Under hyperglycemic conditions the total cell content of GLUT-4 was reduced as well as its plasma membrane abundance [lanes 1 & 2 for Total cell content and PM (plasma membrane) fractions]. […]

[5] = test system: streptozotocin-diabetic C57/black mice; assay: Anti-hyperglycemic activity in streptozotocin-diabetic mice; format: in vivo, mouse
Method: FIG. 12: Anti-hyperglycemic activity of EH-36 in streptozotocin-diabetic mice. Mice were treated with EH-36 or the vehicle alone (sesame oil, bold lines), and their blood glucose levels determined at the indicated time intervals. Male C57/black mice were made hyperglycemic by 5 repeated daily injections of streptozotocin (i.p. 50 mg/Kg body weight). EH-36 was dissolved in sesame oil (4 mg/ml) and injected s.c (400 μg) twice a day.
FIG. 13: Anti-hyperglycemic activity of EH-36 in streptozotocin-diabetic mice. Mice were treated with EH-36 (as described in the legend to FIG. 12) or the vehicle alone (sesame oil, bold lines), and their blood glucose levels were determined at the indicated time intervals. C57/black mice were made diabetic as described in the legend to FIG. 12.
EH-36 was tested for its potential anti-hyperglycemic activity in an animal model of diabetes. Male C57/black mice were made diabetic by daily i.p. injections of streptozotocin (50 mg/Kg) for 5 days. After 10 days the fasting blood glucose of these mice was above 300 mg/dL as compared to 80-130 mg/dL of control mice. Unlike a single and high dose injection of streptozotocin, which produces an animal model for Type 1 diabetes, the repeated low-dose injections produce a model that more closely resembles Type 2 diabetes. (Fraser, R. B., Rowden, G., Colp, P, And Wright, J. R. Jr.: Immunophenotyping of insulitis in control and essential fatty aid deficient mice treated with multiple low-dose streptozotocin. Diabetologia, 40:1263-1268, 1997).
EH-36 was dissolved in sesame oil (4 mg/ml) and injected into Streptozotocin-diabetic mice (s.c. 400 μg, twice a day at 08 and 18 hrs). Blood was withdrawn from the tip of the tails and glucose levels were measured with a glucometer.

[6] = test system: non-diabetic mice; assay: Blood glucose level of non-diabetic mice; settings: mouse, in vivo
[7] = Serum level of EH-36 in rats by HPLC; format: in vivo, rat; settings: 16 mg/day in sesame oil s.c. for 3 days, serum on fourth day, preliminary
Method: Extract aliquots (30 μl) were analyzed by reverse phase HPLC in a 150×4.6 mm, 3μ ODS Hypersil® column (Thermohypersil-Keystone, Bellfonte, Pa.) connected to an L-4200 UV-Vis detector (272 nm). Elution was at a flow rate of 1.5 ml/min with water and acetonitrile gradient: the initial solvent mixture was 30% water:70% acetonitrile:. A convex gradient over 20 min then followed to 100% acetonitrile.
The pharmacokinetic parameters of EH-36 were determined by the following procedure. Rats (3 per group per time point) were anesthetized and their blood collected from the portal vein. The serum was separated and extracted with chloroform. The extract was dried and redissolved in a small volume of chloroform and separated by HPLC and identified by UV absorption. The animals were treated with 16 mg/day (in sesame oil, s.c.) for 3 days. On the fourth day the animals were sacrificed and serum was isolated, extracted and separated by HPLC. There was a distinct peak of EH-36 corresponding to 1.01 mg/ml EH-36. To verify that this peak corresponds to EH-36 a known quantity of this compound was added to a serum sample taken from the EH-36-treated rats. Following extraction and HPLC analysis the only peak that was intensified was that corresponding to EH-36. […]

[8] = Solubility of EH-36; format: physicochemical; settings: e.g., DMSO, ethanol and oil
[9] = test system: glucose uptake in cultured cells; assay: In vitro glucose uptake / hexose transport in cultured cells with xylose derivatives (Table 2); format: cell-based; settings: for EC50 / ECmax: EC = Effective concentration
Method: Table 2 summarizes in vitro results obtained with some of these newly synthesized xylose derivatives.
as §3
All new compounds are screened and tested first in various insulin-sensitive cell cultures used routinely in the laboratory (skeletal muscle and adipose cell lines). In addition these drugs were tested in non-insulin-sensitive cells such as primary cultures of bovine and porcine vascular endothelial and smooth muscle cells. Active compounds were tested ex-vivo on isolated rat soleus muscles. All cell cultures and tissues were maintained under hyperglycemic condition prior to the addition of the test compounds. Dose-response and time-course experiments determine which of the derivatives are subsequently tested in animal models. For each potent compound the total cell content and plasma membrane abundance of GLUT-1 and GLUT-4 was determined, as described above. The same biotinylation technique was employed to determine the total and plasma membrane content of both transporters in isolated mouse or rat soleus muscles treated with potent compounds.

[10] = test system: streptozotocin-diabetic mice; assay: Glucose tolerance test (GTT) of diabetic mice; format: in vivo, mouse
Method: FIG. 14: Glucose tolerance test (GTT) of diabetic mice treated with sesame oil or EH-36 for 9 days, as described in the legend to FIG. 12. On the morning of the 10th day and following an overnight fast the mice received glucose (2 gr/Kg body weight) by i.p. injection, Blood glucose was determined for 3 hr at 30 min intervals. The glucose data were plotted for each animal and the area under the curve (AUC) was calculated.
In another set of experiments similar diabetic mice were treated with the oil or EH-36 (1.5 mg, s.c. twice a day) for 9 days. On the morning of the 10th day and following an overnight fast the mice were subjected to a glucose tolerance test (GTT). The mice received D-glucose by i.p. injections (2 gr/kg body weight). Blood glucose as monitored for 3 hr at 30 min intervals.

For “Insulin: insulin, hormone used as positive control for glucose transport stimulation [reference compound]”, the “effect of PI3-kinase inhibitor LY-249002 on the substance's stimulation of hexose transport” value [1] was “eliminated the stimulatory effect”, the “augmentation of transport by insulin” value ([1]; at 5.0 and 23.0 mM glucose) was ~2 fold and the “translocation of GLUT-4 to the plasma membrane” value [2] was “translocation of GLUT-4 to the plasma membrane”. The PKB phosphorylation [3] was “prominent, but transient phosphorylation” and the “effect on GLUT-1 (blots with anti GLUT-1 antibody)” value [4] was “no effect”.
With `CCSC(SCC)[C@@H]1OC(c2ccccc2)O[C@@H]2COC(c3ccccc3)O[C@@H]21` (stereo partly drawn) [EH-36, 2,4:3,5 di-O-benzylidene-D-xylose-diethyl-dithioacetal] the blood glucose level ([5]; 400 μg s.c. in sesame oil twice a day (FIG. 13)) was “reduced their blood glucose level to the normoglycemic range”, the “duration of effect after treatment” value ([5]; after the last injection) was “at least 3 weeks” and the “blood glucose levels after treatment stopped” value ([5]; left untreated for four additional weeks after 9-day injection) was 250 to 350 mg/dL. For the same compound, the “appearance of animals after treatment stopped” value ([5]; untreated for four additional weeks) was “looked normal and healthy”, the “blood glucose level of non-diabetic mice” value [6] was “Neither EH-36 nor the vehicle changed significantly” and the serum concentration [7] was 1010 µg/mL. The solubility [8] was “very limited solubility in most common organic solvents”, the “Fold Increase of Glucose Uptake” value [9] was 2.0 fold and the onset of action [9] was 24 to 48 h. The “time to maximal stimulatory effects” value [9] was ≤ 48 h, the EC50 [9] was 2 µM and the ECmax [9] was 10 µM. The “potency relative to D-xylose” value ([9]; more potent than xylose) was 2000 fold, the “average AUC of GTT” value ([10]; 1.5 mg s.c. twice a day for 9 days, glucose 2 gr/kg i.p. on 10th day, ±SEM) was 6.42±1.62 mg glucose/ml/hr and the “improvement of glucose clearance” value ([10]; following a 9-day treatment) was ~50%.
In the case of `CCCO[C@@H]([C@H](O)CO)[C@@H](O)C=O` [EH-114, 3-O-propyl-D-xylose], the “effect of PI3-kinase inhibitor LY-249002 on the substance's stimulation of hexose transport” value [1] is reported as “failed to affect”, the “increase of uptake rate together with insulin” value ([1]; L6 myotubes, compound during last 24 hr plus insulin) is reported as ~3 fold and the “total cell content of GLUT-4” value ([2]; L6 cells exposed to 23.0 mM glucose (FIG. 10)) is reported as “increased the total content of the transporter”. The “translocation of GLUT-4 to the plasma membrane” value [2] was “induced significant translocation of GLUT-4 to the plasma membrane”, the PKB phosphorylation [3] was “failed to induce significant phosphorylation” and the “Fold Increase of Glucose Uptake” value [9] was 2.6 fold. For the same compound, the EC50 [9] was 3000 µM, the ECmax [9] was 4500 µM and the “duration of activity following removal from the culture media” value ([9]; after being washed from cell cultures) was 24 h.
